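1) Cells in 96-well plates. 2) Compound, 48 h, 5 concentrations. 3) Linear interpolation between surrounding doses. 4) Unreached endpoint = highest concentration. GI50: concentration for 50% inhibition of growth. TGI denotes the concentration required for complete inhibition of growth.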
Experiments:
Assay in all cases: DTP human tumour cell line panel, 48 h
SNB-19 CNS = test system: SNB-19 CNS
MDA-MB-231 breast = test system: MDA-MB-231 breast
BT-549 breast = test system: BT-549 breast
HL-60(TB) leukemia = test system: HL-60(TB) leukemia
U251 CNS = test system: U251 CNS
OVCAR-5 ovarian = test system: OVCAR-5 ovarian
LOX IMVI melanoma = test system: LOX IMVI melanoma
MDA-MB-435 = test system: MDA-MB-435
EKVX NSCLC = test system: EKVX NSCLC
SF-268 CNS = test system: SF-268 CNS
HOP-62 NSCLC = test system: HOP-62 NSCLC
SK-MEL-2 melanoma = test system: SK-MEL-2 melanoma
T-47D breast = test system: T-47D breast
TK-10 renal = test system: TK-10 renal
RPMI-8226 leukemia = test system: RPMI-8226 leukemia
UO-31 renal = test system: UO-31 renal
UACC-62 melanoma = test system: UACC-62 melanoma
SNB-75 CNS = test system: SNB-75 CNS
HCC-2998 colon = test system: HCC-2998 colon
A549 NSCLC = test system: A549 NSCLC
SN12C renal = test system: SN12C renal
OVCAR-4 ovarian = test system: OVCAR-4 ovarian
SK-OV-3 ovarian = test system: SK-OV-3 ovarian
MOLT-4 leukemia = test system: MOLT-4 leukemia
OVCAR-8 ovarian = test system: OVCAR-8 ovarian
HCT-116 colon = test system: HCT-116 colon
RXF 393 renal = test system: RXF 393 renal
KM12 colon = test system: KM12 colon
MALME-3M melanoma = test system: MALME-3M melanoma
K-562 leukemia = test system: K-562 leukemia
786-0 renal = test system: 786-0 renal
DU-145 prostate = test system: DU-145 prostate
HS 578T breast = test system: HS 578T breast
NCI-H460 lung = test system: NCI-H460 lung
NCI-H23 lung = test system: NCI-H23 lung
M14 melanoma = test system: M14 melanoma
MCF7 breast = test system: MCF7 breast
PC-3 prostate = test system: PC-3 prostate
SR leukemia = test system: SR leukemia
SW-620 colon = test system: SW-620 colon
SF-295 CNS = test system: SF-295 CNS
CCRF-CEM leukemia = test system: CCRF-CEM leukemia
NCI-H522 lung = test system: NCI-H522 lung
HCT-15 colon = test system: HCT-15 colon
HOP-92 NSCLC = test system: HOP-92 NSCLC
NCI/ADR-RES ovarian = test system: NCI/ADR-RES ovarian
HT29 colon = test system: HT29 colon
IGROV1 ovarian = test system: IGROV1 ovarian
UACC-257 melanoma = test system: UACC-257 melanoma
OVCAR-3 ovarian = test system: OVCAR-3 ovarian
COLO 205 colon = test system: COLO 205 colon
ACHN renal = test system: ACHN renal
SK-MEL-28 melanoma = test system: SK-MEL-28 melanoma
NCI-H226 lung = test system: NCI-H226 lung
A498 renal = test system: A498 renal
SK-MEL-5 melanoma = test system: SK-MEL-5 melanoma
CAKI-1 renal = test system: CAKI-1 renal
SF-539 CNS = test system: SF-539 CNS

Work on `O=C(Nc1ccccc1)c1cc2cc(CCl)ccc2oc1=O` yielded a TGI (SNB-19 CNS) of over 100 µM, a TGI (MDA-MB-231 breast) of over 100 µM and a TGI (BT-549 breast) of over 100 µM. It also gave a TGI (HL-60(TB) leukemia) of over 100 µM, a TGI (U251 CNS) of over 100 µM and a TGI (OVCAR-5 ovarian) of over 100 µM. For the same compound, the TGI (LOX IMVI melanoma) was over 100 µM, the TGI (MDA-MB-435) was over 100 µM and the TGI (EKVX NSCLC) was over 100 µM. It also gave a TGI (SF-268 CNS) of over 100 µM, a TGI (HOP-62 NSCLC) of over 100 µM and a TGI (SK-MEL-2 melanoma) of over 100 µM. For the same compound, the TGI (T-47D breast) was over 100 µM, the TGI (TK-10 renal) was over 100 µM and the TGI (RPMI-8226 leukemia) was over 100 µM. For the same compound, the TGI (UO-31 renal) was over 100 µM, the TGI (UACC-62 melanoma) was 32.8 µM and the TGI (SNB-75 CNS) was over 100 µM. It also gave a TGI (HCC-2998 colon) of over 100 µM, a TGI (A549 NSCLC) of over 100 µM and a TGI (SN12C renal) of over 100 µM. For the same compound, the TGI (OVCAR-4 ovarian) was over 100 µM, the TGI (SK-OV-3 ovarian) was over 100 µM and the TGI (MOLT-4 leukemia) was over 100 µM. For the same compound, the TGI (OVCAR-8 ovarian) was over 100 µM, the TGI (HCT-116 colon) was over 100 µM and the TGI (RXF 393 renal) was over 100 µM. For the same compound, the TGI (KM12 colon) was over 100 µM, the TGI (MALME-3M melanoma) was over 100 µM and the TGI (K-562 leukemia) was over 100 µM. It also gave a TGI (786-0 renal) of over 100 µM, a TGI (DU-145 prostate) of over 100 µM and a TGI (HS 578T breast) of 63.9 µM. The TGI (NCI-H460 lung) was over 100 µM, the TGI (NCI-H23 lung) was over 100 µM and the TGI (M14 melanoma) was over 100 µM. For the same compound, the TGI (MCF7 breast) was 82.9 µM, the TGI (PC-3 prostate) was over 100 µM and the TGI (SR leukemia) was over 100 µM. The TGI (SW-620 colon) was over 100 µM, the TGI (SF-295 CNS) was over 100 µM and the TGI (CCRF-CEM leukemia) was over 100 µM. The TGI (NCI-H522 lung) was over 100 µM, the TGI (HCT-15 colon) was over 100 µM and the TGI (HOP-92 NSCLC) was over 100 µM. For the same compound, the TGI (NCI/ADR-RES ovarian) was over 100 µM, the TGI (HT29 colon) was over 100 µM and the TGI (IGROV1 ovarian) was over 100 µM. It also gave a TGI (UACC-257 melanoma) of over 100 µM, a TGI (OVCAR-3 ovarian) of over 100 µM and a TGI (COLO 205 colon) of over 100 µM. The TGI (ACHN renal) was 31.1 µM, the TGI (SK-MEL-28 melanoma) was over 100 µM and the TGI (NCI-H226 lung) was over 100 µM. The TGI (A498 renal) was 26.1 µM, the TGI (SK-MEL-5 melanoma) was over 100 µM and the TGI (CAKI-1 renal) was over 100 µM.
`Fc1ccc(-c2c(-c3ccncc3)[nH]c3cccnc23)cc1` gave a GI50 (SNB-19 CNS) of over 25 µM, a TGI (SNB-19 CNS) of over 25 µM and a GI50 (MDA-MB-231 breast) of over 25 µM. The TGI (MDA-MB-231 breast) was over 25 µM, the GI50 (BT-549 breast) was over 25 µM and the TGI (BT-549 breast) was over 25 µM. For the same compound, the GI50 (SF-539 CNS) was over 25 µM, the TGI (SF-539 CNS) was over 25 µM and the GI50 (HL-60(TB) leukemia) was over 25 µM. The TGI (HL-60(TB) leukemia) was over 25 µM, the GI50 (U251 CNS) was over 25 µM and the TGI (U251 CNS) was over 25 µM. It also gave a GI50 (OVCAR-5 ovarian) of over 25 µM, a TGI (OVCAR-5 ovarian) of over 25 µM and a GI50 (LOX IMVI melanoma) of over 21.7 µM. The TGI (LOX IMVI melanoma) was over 25 µM, the GI50 (MDA-MB-435) was over 25 µM and the TGI (MDA-MB-435) was over 25 µM. The GI50 (SF-268 CNS) was over 25 µM, the TGI (SF-268 CNS) was over 25 µM and the GI50 (HOP-62 NSCLC) was over 25 µM. For the same compound, the TGI (HOP-62 NSCLC) was over 25 µM, the GI50 (SK-MEL-2 melanoma) was over 25 µM and the TGI (SK-MEL-2 melanoma) was over 25 µM. For the same compound, the GI50 (T-47D breast) was 13.4 µM, the TGI (T-47D breast) was over 25 µM and the GI50 (TK-10 renal) was 3.02 µM. The TGI (TK-10 renal) was over 25 µM, the GI50 (RPMI-8226 leukemia) was over 25 µM and the TGI (RPMI-8226 leukemia) was over 25 µM. It also gave a GI50 (UO-31 renal) of 3.2 µM, a TGI (UO-31 renal) of over 25 µM and a GI50 (UACC-62 melanoma) of 12 µM. For the same compound, the TGI (UACC-62 melanoma) was over 25 µM, the GI50 (SNB-75 CNS) was over 17.8 µM and the TGI (SNB-75 CNS) was over 25 µM. The GI50 (HCC-2998 colon) was over 25 µM, the TGI (HCC-2998 colon) was over 25 µM and the GI50 (A549 NSCLC) was 17 µM. It also gave a TGI (A549 NSCLC) of over 25 µM, a GI50 (SN12C renal) of 18.8 µM and a TGI (SN12C renal) of over 25 µM. It also gave a GI50 (OVCAR-4 ovarian) of over 25 µM, a TGI (OVCAR-4 ovarian) of over 25 µM and a GI50 (SK-OV-3 ovarian) of 10.6 µM. The TGI (SK-OV-3 ovarian) was over 25 µM, the GI50 (MOLT-4 leukemia) was over 25 µM and the TGI (MOLT-4 leukemia) was over 25 µM. The GI50 (OVCAR-8 ovarian) was over 25 µM, the TGI (OVCAR-8 ovarian) was over 25 µM and the GI50 (HCT-116 colon) was over 25 µM. For the same compound, the TGI (HCT-116 colon) was over 25 µM, the GI50 (RXF 393 renal) was over 20.4 µM and the TGI (RXF 393 renal) was over 25 µM. The GI50 (KM12 colon) was over 25 µM, the TGI (KM12 colon) was over 25 µM and the GI50 (MALME-3M melanoma) was over 21.9 µM. For the same compound, the TGI (MALME-3M melanoma) was over 25 µM, the GI50 (K-562 leukemia) was over 23.1 µM and the TGI (K-562 leukemia) was over 25 µM. It also gave a GI50 (786-0 renal) of over 25 µM, a TGI (786-0 renal) of over 25 µM and a GI50 (DU-145 prostate) of over 22.7 µM. It also gave a TGI (DU-145 prostate) of over 25 µM, a GI50 (HS 578T breast) of over 25 µM and a TGI (HS 578T breast) of over 25 µM. It also gave a GI50 (NCI-H460 lung) of 18.3 µM, a TGI (NCI-H460 lung) of over 25 µM and a GI50 (NCI-H23 lung) of over 25 µM. For the same compound, the TGI (NCI-H23 lung) was over 25 µM, the GI50 (M14 melanoma) was over 25 µM and the TGI (M14 melanoma) was over 25 µM. For the same compound, the GI50 (MCF7 breast) was 13.8 µM, the TGI (MCF7 breast) was over 25 µM and the GI50 (PC-3 prostate) was over 25 µM. For the same compound, the TGI (PC-3 prostate) was over 25 µM, the GI50 (SR leukemia) was over 18.9 µM and the TGI (SR leukemia) was over 25 µM. It also gave a GI50 (SW-620 colon) of over 25 µM, a TGI (SW-620 colon) of over 25 µM and a GI50 (SF-295 CNS) of over 25 µM. The TGI (SF-295 CNS) was over 25 µM, the GI50 (CCRF-CEM leukemia) was over 25 µM and the TGI (CCRF-CEM leukemia) was over 25 µM. The GI50 (NCI-H522 lung) was over 19.8 µM, the TGI (NCI-H522 lung) was over 25 µM and the GI50 (HCT-15 colon) was 15.4 µM. The TGI (HCT-15 colon) was over 25 µM, the GI50 (HOP-92 NSCLC) was 22.3 µM and the TGI (HOP-92 NSCLC) was over 25 µM. It also gave a GI50 (NCI/ADR-RES ovarian) of over 25 µM, a TGI (NCI/ADR-RES ovarian) of over 25 µM and a GI50 (HT29 colon) of 8.18 µM. For the same compound, the TGI (HT29 colon) was over 25 µM, the GI50 (IGROV1 ovarian) was 8.45 µM and the TGI (IGROV1 ovarian) was over 25 µM. The GI50 (UACC-257 melanoma) was over 25 µM, the TGI (UACC-257 melanoma) was over 25 µM and the GI50 (OVCAR-3 ovarian) was over 22.2 µM. It also gave a TGI (OVCAR-3 ovarian) of over 25 µM, a GI50 (COLO 205 colon) of 18.6 µM and a TGI (COLO 205 colon) of over 25 µM. For the same compound, the GI50 (ACHN renal) was 1.63 µM, the TGI (ACHN renal) was over 25 µM and the GI50 (SK-MEL-28 melanoma) was over 25 µM. The TGI (SK-MEL-28 melanoma) was over 25 µM, the GI50 (NCI-H226 lung) was over 15.2 µM and the TGI (NCI-H226 lung) was over 25 µM. The GI50 (A498 renal) was over 14.8 µM, the TGI (A498 renal) was over 25 µM and the GI50 (SK-MEL-5 melanoma) was 24.3 µM. It also gave a TGI (SK-MEL-5 melanoma) of over 25 µM, a GI50 (CAKI-1 renal) of 7.43 µM and a TGI (CAKI-1 renal) of over 25 µM.
